A short description of this series: Surgical Bioavailability Assay. In kind it is in vivo. The settings on record: pig; octreotide; porcine surgical model, device/dosage form placed in the intestine (jejunum, ileum); from active agent levels in blood samples; FIG. 23. As to the method:
To determine bioavailability, mucoadhesive devices according to aspects of the present disclosure, as well as comparative dosage forms, are tested by a surgical model (Surgical Bioavailability Assay).
Surgical Bioavailability Assay. In the Surgical Bioavailability Assay, a porcine model is used, in which the animals undergo open surgery such that devices and/or dosage forms to be tested can be placed at regions of the intestine of interest, such as the jejunum and ileum. After administration of anesthesia, a ventral midline incision is made to gain access to the animal's abdominal cavity. The jejunum and ileum are exposed, and incisions are made to manually place the devices and/or dosage forms being tested. After placement of the device and/or dosage form is complete, the intestinal incisions are closed, and the midline incision can also be temporarily closed. Also, access can be made for blood collection via the carotid artery or jugular vein. The animal can be kept under anesthesia for up to 4 hours to allow for blood collection, such as at 5 mins, 15 mins, 30 mins, 60 mins, 90 mins, and 2 hours after oral dosage form placement. Blood samples can also be collected prior to the surgical procedure. The percent bioavailability of the active agent provided with the devices and/or dosage forms is determined on the basis of the active agent levels detected in these blood samples. […]

In turn, `C[C@@H](O)[C@@H]1NC(=O)[C@H](CCCCN)NC(=O)[C@@H](Cc2c[nH]c3ccccc23)NC(=O)[C@H](Cc2ccccc2)NC(=O)[C@@H](NC(=O)[C@H](N)Cc2ccccc2)CSSC[C@@H](C(=O)N[C@H](CO)[C@@H](C)O)NC1=O` [octreotide solution, octreotide] displayed a bioavailability of about 1%.

Usually bioavailability stands for dose-corrected exposure relative to a reference, in per cent.

For the origin of these results see patent US20210236784A1, “DEVICE FOR ORAL DELIVERY OF ACTIVE AGENTS” (Entrega Inc., priority 2015, published 2021).
